For series [1], the target named is 3',5'-cyclic-AMP phosphodiesterase 4B (Homo sapiens, UniProt Q07343). The series is described as follows: 3H-cAMP and 3H-cGMP Scintillation Proximity Assay (PDE4B).
The target of another series is Phosphodiesterase 6. The series is described as follows: 3H-cAMP and 3H-cGMP Scintillation Proximity Assay (PDE6). It is filed as tissue-based, Bos taurus, retina. A general note: Scintillation proximity formats need no separation of bound from free tracer.
Series [2] deals with High affinity cAMP-specific and IBMX-insensitive 3',5'-cyclic phosphodiesterase 8A (Homo sapiens, UniProt O60658). Briefly: 3H-cAMP and 3H-cGMP Scintillation Proximity Assay (PDE8A).
For series [3], the target named is Prostaglandin G/H synthase 2 (Homo sapiens) (UniProt P35354). Briefly: Cyclooxygenase COX-2 Eurofins Panlabs panel. As to conditions: Compound concentration 10.0 uM; call rule not given here.
The target in series [4] is 3-hydroxy-3-methylglutaryl-coenzyme A reductase (Homo sapiens) (UniProt P04035). The series is described as follows: HMG-CoA Reductase Eurofins Panlabs panel. The conditions noted are these: Compound concentration 10.0 uM.
The target of series [5] is Monoamine oxidase B (MAO-B) (Homo sapiens, UniProt P27338). Briefly: Monoamine Oxidase MAO-B Eurofins Panlabs panel. The conditions noted are these: compound concentration 10 uM.
The target of series [6] is Adenosine receptor A3 (Homo sapiens) (UniProt P0DMS8). The series is described as follows: Adenosine A3 Eurofins Panlabs panel. The conditions noted are these: Compound concentration 10.0 uM.
Series [7] concerns the target Beta-3 adrenergic receptor (Homo sapiens) (UniProt P13945). Briefly: Adrenergic beta3 Eurofins Panlabs panel. As to conditions: concentration not given here.
In series [8] the target is Androgen receptor (Homo sapiens) (UniProt P10275). Briefly: Androgen (Testosterone) Eurofins Panlabs panel. As to conditions: Compound concentration 10.0 uM.
The target in series [9] is D(2) dopamine receptor (Homo sapiens) (UniProt P14416). The series is described as follows: Dopamine D2L Eurofins Panlabs panel. The conditions noted are these: Compound concentration 10.0 uM.
For series [10] the target is unchanged. Briefly: Dopamine D2S Eurofins Panlabs panel. As to conditions: Compound concentration 10.0 uM.
The target in series [11] is T1, GABA-A receptor; anion channel (Rattus norvegicus) (UniProt O09028+P15431+P18506+P18508+P19969+P20236+P23574+P23576+P28471+P28473+P30191+P62813+P63079+P63138+Q91ZM7+Q9ES14). Briefly: GABAA, Flunitrazepam, Central Eurofins Panlabs panel. Type of series: protein-complex assay. As to conditions: Compound concentration 10.0 uM.
In series [12] the target is T1, GABA-A receptor; anion channel (Rattus norvegicus). Briefly: GABAA, Muscimol, Central Eurofins Panlabs panel. Type of series: protein-complex assay. As to conditions: Compound concentration 10.0 uM.
For series [13], the target named is Glutamate receptor ionotropic, kainate (Rattus norvegicus) (UniProt P22756+Q01812+P42260+P42264+Q63273). Briefly: Glutamate, Kainate Eurofins Panlabs panel. Type of series: protein-complex assay. As to conditions: Compound concentration 10.0 uM.
Series [14] concerns the target Histamine H2 receptor (Homo sapiens) (UniProt P25021). The series is described as follows: Histamine H2 Eurofins Panlabs panel. The conditions noted are these: Compound concentration 10.0 uM.
The target of series [15] is Motilin receptor (Homo sapiens) (UniProt O43193). The series is described as follows: Motilin Eurofins Panlabs panel. The conditions noted are these: concentration not given here.
In series [16] the target is T2, Muscarinic acetylcholine receptor M1 (Homo sapiens) (UniProt P11229).
T2 sequence (whole entry): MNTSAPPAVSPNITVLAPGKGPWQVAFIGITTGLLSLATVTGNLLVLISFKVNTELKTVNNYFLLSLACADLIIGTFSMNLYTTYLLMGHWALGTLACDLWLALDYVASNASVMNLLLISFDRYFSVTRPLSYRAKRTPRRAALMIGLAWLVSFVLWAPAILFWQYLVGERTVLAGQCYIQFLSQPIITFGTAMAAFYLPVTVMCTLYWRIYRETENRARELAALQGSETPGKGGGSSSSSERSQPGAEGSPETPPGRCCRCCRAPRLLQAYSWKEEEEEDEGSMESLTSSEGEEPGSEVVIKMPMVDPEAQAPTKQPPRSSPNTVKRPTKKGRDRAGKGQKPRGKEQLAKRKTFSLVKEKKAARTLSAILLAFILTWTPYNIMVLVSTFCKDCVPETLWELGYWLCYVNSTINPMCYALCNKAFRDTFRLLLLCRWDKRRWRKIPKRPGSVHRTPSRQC
The series is described as follows: Muscarinic M1 Eurofins Panlabs panel. The conditions noted are these: Compound concentration 10.0 uM.

Series [17] concerns the target T3, 5-hydroxytryptamine receptor 3A (Homo sapiens) (UniProt P46098).
T3 sequence (whole entry): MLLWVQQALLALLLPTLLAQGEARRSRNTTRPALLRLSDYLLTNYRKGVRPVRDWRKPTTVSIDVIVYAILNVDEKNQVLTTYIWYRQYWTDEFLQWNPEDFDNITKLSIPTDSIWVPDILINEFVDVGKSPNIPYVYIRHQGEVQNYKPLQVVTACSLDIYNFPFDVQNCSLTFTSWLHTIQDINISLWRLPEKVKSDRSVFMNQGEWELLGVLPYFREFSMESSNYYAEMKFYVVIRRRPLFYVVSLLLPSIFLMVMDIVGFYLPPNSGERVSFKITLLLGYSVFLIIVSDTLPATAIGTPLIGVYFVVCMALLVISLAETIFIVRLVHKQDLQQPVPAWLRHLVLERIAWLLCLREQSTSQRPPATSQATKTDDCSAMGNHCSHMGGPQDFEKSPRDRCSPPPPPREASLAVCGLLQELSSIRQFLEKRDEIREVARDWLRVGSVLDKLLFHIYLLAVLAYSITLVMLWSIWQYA
Briefly: Serotonin (5-Hydroxytryptamine) 5-HT3 Eurofins Panlabs panel. As to conditions: Compound concentration 10.0 uM.

The target of series [18] is Adenosine Transporter (Cavia porcellus) (UniProt H0V4R7+H0UUG1+H0V3Z5). The series is described as follows: Transporter, Adenosine Eurofins Panlabs panel. It is filed as protein assay. The conditions noted are these: Compound concentration 10.0 uM.
The target of series [19] is Sodium-dependent dopamine transporter (Homo sapiens) (UniProt Q01959). The series is described as follows: Transporter, Dopamine (DAT) Eurofins Panlabs panel. As to conditions: Compound concentration 10.0 uM.
Series [20] has as its target Sodium-dependent noradrenaline transporter (Homo sapiens) (UniProt P23975). The series is described as follows: Transporter, Norepinephrine (NET) Eurofins Panlabs panel. As to conditions: Compound concentration 10.0 uM.
In series [21] the target is Interleukin-1 receptor type 1 (Mus musculus) (UniProt P13504). The series is described as follows: Interleukin IL-1 Eurofins Panlabs panel. The conditions noted are these: Compound concentration 10.0 uM.
Series [22] concerns the target Neuropeptide Y receptor type 1 (Homo sapiens) (UniProt P25929). The series is described as follows: Neuropeptide Y Y1 Eurofins Panlabs panel. As to conditions: Compound concentration 10.0 uM.
Series [23] addresses Sodium-dependent dopamine transporter (Homo sapiens) (UniProt Q01959). The series is described as follows: Uptake, Dopamine - Antagonist Eurofins Panlabs panel. The conditions noted are these: Compound concentration 10.0 uM.
Series [24] addresses Prostaglandin F2-alpha receptor (Homo sapiens) (UniProt P43088). Briefly: Prostanoid FP Eurofins Panlabs panel. As to conditions: Compound concentration 10.0 uM.
In series [25] the target is Alpha-1A adrenergic receptor (Homo sapiens) (UniProt P35348). As to conditions: Compound concentration 10.0 uM.
In series [26] the target is 3',5'-cyclic-AMP phosphodiesterase 4C (Homo sapiens) (UniProt Q08493). Briefly: Panlabs assay PDE4C1. Further details: compound concentration 10 uM. As to conditions: at 10 µM.
For series [27], the target named is Phosphodiesterase 6 (Bos taurus) (UniProt P23439+P16586+P11541+P22571+P04972+Q95142). The series is described as follows: Panlabs assay PDE6. Type of series: tissue-based. The arrangement: compound concentration 10 uM. As to conditions: retina, at 10 µM.
For series [28], the target named is 3',5'-cyclic-AMP phosphodiesterase 7B (Homo sapiens, UniProt Q9NP56). Briefly: Panlabs assay PDE7B. Further details: compound concentration 10 uM. As to conditions: at 10 µM.
Series [29] has as its target High affinity cGMP-specific 3',5'-cyclic phosphodiesterase 9A (Homo sapiens, UniProt O76083). The series is described as follows: Panlabs assay PDE9A2. Further details: compound concentration 10 uM.

A word on the IC50: it is the concentration needed to halve the response being measured. Broadly, the inhibition is the change of the read-out against control, counted positive when it falls.

Chain of Alpha-1A adrenergic receptor (Homo sapiens) (P35348 whole entry): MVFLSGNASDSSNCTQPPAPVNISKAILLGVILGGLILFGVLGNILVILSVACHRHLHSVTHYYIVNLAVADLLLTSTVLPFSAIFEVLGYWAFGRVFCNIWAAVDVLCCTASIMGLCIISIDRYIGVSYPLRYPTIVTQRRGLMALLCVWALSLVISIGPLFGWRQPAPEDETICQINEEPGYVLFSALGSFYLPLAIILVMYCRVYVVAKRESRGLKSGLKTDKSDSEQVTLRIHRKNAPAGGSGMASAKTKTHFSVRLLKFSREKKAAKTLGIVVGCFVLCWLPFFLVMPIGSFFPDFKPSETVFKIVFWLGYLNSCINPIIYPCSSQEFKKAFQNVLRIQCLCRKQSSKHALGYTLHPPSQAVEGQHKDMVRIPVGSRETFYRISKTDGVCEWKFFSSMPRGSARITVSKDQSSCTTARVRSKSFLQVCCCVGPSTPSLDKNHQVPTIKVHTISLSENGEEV
Chain of D(2) dopamine receptor (Homo sapiens) (P14416 whole entry): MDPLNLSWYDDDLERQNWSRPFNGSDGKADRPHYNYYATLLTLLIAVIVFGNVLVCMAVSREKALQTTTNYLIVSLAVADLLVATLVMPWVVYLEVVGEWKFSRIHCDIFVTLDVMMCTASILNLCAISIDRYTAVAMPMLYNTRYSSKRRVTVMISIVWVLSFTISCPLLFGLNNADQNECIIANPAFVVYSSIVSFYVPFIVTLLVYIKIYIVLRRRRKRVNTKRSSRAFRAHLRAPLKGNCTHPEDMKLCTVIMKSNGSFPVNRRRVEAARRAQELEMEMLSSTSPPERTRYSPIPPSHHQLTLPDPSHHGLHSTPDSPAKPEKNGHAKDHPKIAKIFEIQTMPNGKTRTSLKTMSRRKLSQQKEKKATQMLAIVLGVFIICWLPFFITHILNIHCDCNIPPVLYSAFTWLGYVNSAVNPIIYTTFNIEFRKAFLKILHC
Chain of Sodium-dependent dopamine transporter (Homo sapiens) (Q01959 whole entry): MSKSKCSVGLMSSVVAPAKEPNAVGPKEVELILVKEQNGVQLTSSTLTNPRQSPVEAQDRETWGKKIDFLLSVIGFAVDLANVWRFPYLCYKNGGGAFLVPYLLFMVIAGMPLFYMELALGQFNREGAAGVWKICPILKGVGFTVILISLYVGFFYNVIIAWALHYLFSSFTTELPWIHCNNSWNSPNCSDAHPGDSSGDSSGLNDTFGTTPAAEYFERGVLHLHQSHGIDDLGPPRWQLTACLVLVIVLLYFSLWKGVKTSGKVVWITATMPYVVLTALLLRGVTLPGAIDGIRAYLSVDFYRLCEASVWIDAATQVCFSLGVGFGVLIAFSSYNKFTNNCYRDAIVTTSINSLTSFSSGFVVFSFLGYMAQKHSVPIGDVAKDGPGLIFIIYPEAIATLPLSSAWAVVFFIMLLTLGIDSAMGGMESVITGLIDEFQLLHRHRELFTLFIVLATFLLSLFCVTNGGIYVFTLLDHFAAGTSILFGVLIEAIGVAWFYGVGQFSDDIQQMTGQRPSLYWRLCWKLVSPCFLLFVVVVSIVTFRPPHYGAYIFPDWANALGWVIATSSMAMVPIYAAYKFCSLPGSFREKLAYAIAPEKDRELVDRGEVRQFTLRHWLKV
Chain of 3',5'-cyclic-AMP phosphodiesterase 7B (Q9NP56 whole entry): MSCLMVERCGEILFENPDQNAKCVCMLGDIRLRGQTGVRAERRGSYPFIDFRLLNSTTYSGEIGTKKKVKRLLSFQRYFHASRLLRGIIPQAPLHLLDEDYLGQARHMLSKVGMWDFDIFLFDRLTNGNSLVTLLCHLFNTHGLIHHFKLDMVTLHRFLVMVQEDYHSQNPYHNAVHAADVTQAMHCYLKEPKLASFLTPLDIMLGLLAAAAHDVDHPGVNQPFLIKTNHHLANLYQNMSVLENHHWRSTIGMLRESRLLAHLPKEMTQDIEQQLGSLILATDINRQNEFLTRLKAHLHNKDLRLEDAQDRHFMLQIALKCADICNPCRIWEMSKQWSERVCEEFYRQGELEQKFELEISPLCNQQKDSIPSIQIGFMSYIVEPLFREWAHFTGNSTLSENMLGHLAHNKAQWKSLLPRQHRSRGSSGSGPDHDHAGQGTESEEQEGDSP
Chain of 3',5'-cyclic-AMP phosphodiesterase 4B (Q07343 whole entry): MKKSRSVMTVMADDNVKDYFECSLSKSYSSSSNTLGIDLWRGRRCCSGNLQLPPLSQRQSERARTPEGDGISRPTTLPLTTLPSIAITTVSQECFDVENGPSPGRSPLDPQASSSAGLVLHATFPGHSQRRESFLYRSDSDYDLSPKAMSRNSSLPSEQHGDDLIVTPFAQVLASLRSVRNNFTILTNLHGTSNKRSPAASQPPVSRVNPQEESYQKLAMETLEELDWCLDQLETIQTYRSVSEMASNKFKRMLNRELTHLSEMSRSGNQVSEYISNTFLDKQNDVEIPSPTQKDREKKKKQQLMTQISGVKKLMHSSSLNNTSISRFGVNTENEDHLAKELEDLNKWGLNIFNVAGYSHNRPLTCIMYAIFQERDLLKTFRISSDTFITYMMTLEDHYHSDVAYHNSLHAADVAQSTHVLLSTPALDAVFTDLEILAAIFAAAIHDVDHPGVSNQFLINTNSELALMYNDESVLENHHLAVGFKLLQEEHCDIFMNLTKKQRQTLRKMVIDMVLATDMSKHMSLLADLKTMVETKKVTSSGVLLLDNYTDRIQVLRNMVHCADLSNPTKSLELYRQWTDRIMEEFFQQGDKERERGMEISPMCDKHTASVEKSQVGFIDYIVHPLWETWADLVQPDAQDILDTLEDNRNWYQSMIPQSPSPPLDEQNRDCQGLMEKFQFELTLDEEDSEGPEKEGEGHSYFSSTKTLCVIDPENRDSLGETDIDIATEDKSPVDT
Chain of Motilin receptor (Homo sapiens) (O43193 whole entry): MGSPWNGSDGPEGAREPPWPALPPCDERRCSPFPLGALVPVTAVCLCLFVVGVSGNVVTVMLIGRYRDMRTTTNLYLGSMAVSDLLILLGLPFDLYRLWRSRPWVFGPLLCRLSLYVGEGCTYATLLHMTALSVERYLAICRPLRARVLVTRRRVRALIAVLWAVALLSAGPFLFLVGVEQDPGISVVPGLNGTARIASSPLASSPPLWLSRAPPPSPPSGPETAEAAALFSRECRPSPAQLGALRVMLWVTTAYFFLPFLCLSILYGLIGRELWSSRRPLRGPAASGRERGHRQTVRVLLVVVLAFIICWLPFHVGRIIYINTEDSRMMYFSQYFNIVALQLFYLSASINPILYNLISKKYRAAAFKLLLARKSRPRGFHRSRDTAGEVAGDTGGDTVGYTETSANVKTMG
Chain of Prostaglandin F2-alpha receptor (Homo sapiens) (P43088 whole entry): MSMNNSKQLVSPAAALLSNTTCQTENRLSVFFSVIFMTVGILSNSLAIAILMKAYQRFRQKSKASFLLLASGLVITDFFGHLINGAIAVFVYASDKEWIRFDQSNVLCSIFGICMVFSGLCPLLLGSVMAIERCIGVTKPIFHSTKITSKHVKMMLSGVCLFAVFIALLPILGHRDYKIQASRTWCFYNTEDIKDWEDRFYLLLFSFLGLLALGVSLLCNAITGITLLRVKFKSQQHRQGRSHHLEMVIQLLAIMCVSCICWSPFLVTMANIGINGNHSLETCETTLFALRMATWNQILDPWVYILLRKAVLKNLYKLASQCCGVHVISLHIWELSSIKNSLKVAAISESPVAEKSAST
Chain of 3',5'-cyclic-AMP phosphodiesterase 4C (Homo sapiens) (Q08493 whole entry): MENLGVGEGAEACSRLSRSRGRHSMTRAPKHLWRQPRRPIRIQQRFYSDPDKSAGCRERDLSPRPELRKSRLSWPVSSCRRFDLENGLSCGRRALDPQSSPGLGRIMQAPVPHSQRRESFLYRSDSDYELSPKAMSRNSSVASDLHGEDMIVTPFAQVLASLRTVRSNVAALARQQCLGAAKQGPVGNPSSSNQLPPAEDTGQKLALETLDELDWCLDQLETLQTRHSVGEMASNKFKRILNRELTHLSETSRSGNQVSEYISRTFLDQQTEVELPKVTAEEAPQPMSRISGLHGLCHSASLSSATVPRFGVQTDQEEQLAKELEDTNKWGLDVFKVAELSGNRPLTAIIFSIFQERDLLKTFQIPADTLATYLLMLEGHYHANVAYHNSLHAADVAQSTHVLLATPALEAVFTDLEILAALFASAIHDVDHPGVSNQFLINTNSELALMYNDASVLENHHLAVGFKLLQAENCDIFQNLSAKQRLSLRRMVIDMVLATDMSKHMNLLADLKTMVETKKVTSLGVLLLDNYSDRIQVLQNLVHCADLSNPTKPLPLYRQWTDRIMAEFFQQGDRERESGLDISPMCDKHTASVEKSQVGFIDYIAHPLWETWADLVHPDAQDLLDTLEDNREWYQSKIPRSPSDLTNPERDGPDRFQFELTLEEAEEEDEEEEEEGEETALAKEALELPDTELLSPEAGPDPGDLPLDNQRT
Chain of Monoamine oxidase B (MAO-B) (P27338 whole entry): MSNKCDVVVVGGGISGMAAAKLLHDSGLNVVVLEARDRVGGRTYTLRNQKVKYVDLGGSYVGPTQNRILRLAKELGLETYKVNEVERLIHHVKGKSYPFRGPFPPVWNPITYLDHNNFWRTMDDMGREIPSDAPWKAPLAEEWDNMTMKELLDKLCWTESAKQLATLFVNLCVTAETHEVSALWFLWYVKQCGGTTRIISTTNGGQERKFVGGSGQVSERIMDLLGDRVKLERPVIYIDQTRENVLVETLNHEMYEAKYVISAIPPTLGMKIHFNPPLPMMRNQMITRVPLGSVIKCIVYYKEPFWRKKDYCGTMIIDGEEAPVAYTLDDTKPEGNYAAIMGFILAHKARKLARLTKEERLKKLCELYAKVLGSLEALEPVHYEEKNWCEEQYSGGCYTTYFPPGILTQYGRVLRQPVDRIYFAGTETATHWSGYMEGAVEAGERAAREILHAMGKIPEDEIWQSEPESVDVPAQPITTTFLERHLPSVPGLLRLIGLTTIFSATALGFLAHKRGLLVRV

With `CCC[C@H]1CNCc2c1[nH]c(=O)c(C#N)c2N1CCC2(CC1)CC2`, the concentration for half-maximal inhibition (IC50) in series [1] was 3.96 µM (not active); against Phosphodiesterase 6, 1.56 µM; in series [2], 1.49 µM (not active). Besides, the inhibition in [3] is -5%; in [4], 8%; in series [6], 12.5%; in series [7], 0%; in series [8], -6%; in series [9] it was 12%. In addition, the inhibition in series [10] was -2%; in series [11], 16.5%; in series [12], 25%; in series [13] it was -0.5%; in [14], 3%; in [15] it was 0%. Besides, the inhibition was -4% in [16]; 3.75% in series [17]; 4% in [18]; 19% in series [19]; 6% in series [20]; 14% in series [21]. For the same molecule, the inhibition in series [22] was 15%; in series [23] it was 22%; in series [24], 13%; in series [25], 6.38%. Also, the inhibition at 10 µM in [5] came to 2%.
Turning to `CCC[C@@H]1CNCc2c1[nH]c(=O)c(C#N)c2N1CCC2(CC1)CC2`, the inhibition in series [26] was 28.6%; in [27], 16.7%; in series [28], -2.1%. Besides, the IC50 in series [29] is given as 7.47 µM (not active).

These data come from ChEMBL document CHEMBL5303765, “Data for DCP probe BAY-7081” (2023).
